We go through 22 molecules from publication doi:10.1101/2025.05.09.652710v1 (bioRxiv, 2025).

Where only a bound is given, the exact number is not on record here.

One assay addresses TMPRSS2 (Homo sapiens, UniProt O15393, Q253D/R252D/R255K/S251D/S254D). Kind of assay: Fluorogenic kinetic enzyme inhibitor assay, TMPRSS2. Type of assay: biochemical.
For assay [1], the system named is influenza A virus strain A/California/4/2009 (pdmH1N1). The following applies: for H1N1 titer Log fold reduction (1 μM): virus strain A/California/4/2009 (pdmH1N1, 72 h, 1 μM); for H1N1 titer Log fold reduction (10 μM): virus strain A/California/4/2009 (pdmH1N1, 72 h, 10 μM).
In another assay the target is T1, HGFA (Homo sapiens, UniProt Q04756).
T1 sequence (Q04756 373-655): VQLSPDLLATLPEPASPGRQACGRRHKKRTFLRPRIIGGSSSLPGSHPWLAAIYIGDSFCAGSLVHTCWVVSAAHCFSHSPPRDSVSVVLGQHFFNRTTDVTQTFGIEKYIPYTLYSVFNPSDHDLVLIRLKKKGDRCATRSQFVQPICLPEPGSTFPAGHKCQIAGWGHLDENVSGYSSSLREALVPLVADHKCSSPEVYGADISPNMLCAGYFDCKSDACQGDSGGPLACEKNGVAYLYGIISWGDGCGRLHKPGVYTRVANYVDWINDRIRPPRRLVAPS
Briefly: Fluorogenic kinetic enzyme inhibitor assay, HGFA. It is filed as biochemical.

The next assay has as its target thrombin (Homo sapiens, UniProt P00734). Briefly: Chromogenic kinetic enzyme assay, thrombin. Type of assay: biochemical.
Assay [2] deals with chimeric VSV SARS-CoV-2 virus. The following applies: for EC50: chimeric VSV virus.
A further assay addresses T2, matriptase (Homo sapiens, UniProt Q9Y5Y6).
T2 sequence (Q9Y5Y6 615-855): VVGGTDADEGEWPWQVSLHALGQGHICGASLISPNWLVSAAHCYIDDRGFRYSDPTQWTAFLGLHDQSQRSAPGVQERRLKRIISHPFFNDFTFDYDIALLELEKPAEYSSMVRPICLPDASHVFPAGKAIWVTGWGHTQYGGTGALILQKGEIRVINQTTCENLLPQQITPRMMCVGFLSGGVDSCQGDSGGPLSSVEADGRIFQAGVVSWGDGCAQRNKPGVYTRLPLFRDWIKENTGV
Kind of assay: Fluorogenic kinetic enzyme inhibitor assay, matriptase. It is filed as biochemical.

A further assay deals with hepsin (Homo sapiens, UniProt P05981). Kind of assay: Fluorogenic kinetic enzyme inhibitor assay, hepsin. Type of assay: biochemical.
Chain of hepsin (P05981 163-417 limits assumed): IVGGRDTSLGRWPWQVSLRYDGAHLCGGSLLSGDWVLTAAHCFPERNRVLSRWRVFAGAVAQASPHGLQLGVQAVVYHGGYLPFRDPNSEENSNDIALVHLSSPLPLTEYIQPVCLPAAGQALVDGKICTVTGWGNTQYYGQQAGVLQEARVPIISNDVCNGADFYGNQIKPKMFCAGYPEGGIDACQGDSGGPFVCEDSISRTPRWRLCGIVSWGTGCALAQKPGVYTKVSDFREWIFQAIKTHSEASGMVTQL
Chain of hepsin (P05981 45-162 partner limits assumed): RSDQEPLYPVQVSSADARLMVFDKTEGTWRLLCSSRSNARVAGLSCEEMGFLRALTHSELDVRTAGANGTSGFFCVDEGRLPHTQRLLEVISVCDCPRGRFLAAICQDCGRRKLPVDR

Chain of TMPRSS2 (O15393 109-492 S251D/R252D/Q253D/S254D/R255K limits assumed): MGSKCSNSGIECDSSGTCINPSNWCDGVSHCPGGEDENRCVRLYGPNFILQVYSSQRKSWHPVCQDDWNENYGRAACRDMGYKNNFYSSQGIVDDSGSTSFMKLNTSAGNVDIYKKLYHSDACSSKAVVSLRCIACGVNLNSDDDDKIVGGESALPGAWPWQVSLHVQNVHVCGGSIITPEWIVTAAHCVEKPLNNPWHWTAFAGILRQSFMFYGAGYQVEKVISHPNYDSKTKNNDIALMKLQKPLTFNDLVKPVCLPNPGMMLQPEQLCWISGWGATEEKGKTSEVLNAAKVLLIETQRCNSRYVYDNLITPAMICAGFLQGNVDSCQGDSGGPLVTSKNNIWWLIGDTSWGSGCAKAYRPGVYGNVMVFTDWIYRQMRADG

A word on the IC50: it is the concentration that inhibits the measured activity by half. For the molecule `N=C(N)NCCC[C@H](NC(=O)[C@H](Cc1ccccc1)NC(=O)[C@H](CCC(N)=O)NC(=O)Cc1ccccc1)C(=O)c1nc2ccccc2s1` [CA1018, PhAc-QFR-kbt], the IC50 at TMPRSS2 amounted to 0.41 nM.
On the same count and under the same terms, then `N=C(N)NCCC[C@H](NC(=O)[C@H](Cc1ccccc1)NC(=O)[C@H](CCC(N)=O)NCc1ccccc1)C(=O)c1nc2ccccc2s1` [CA1022, Bn-QFR-kbt], with 0.99 nM; and `N=C(N)NCCC[C@H](NC(=O)[C@H](Cc1ccccc1)NC(=O)[C@H](CCC(N)=O)NCCc1ccccc1)C(=O)c1nc2ccccc2s1` [CA1033, PhCH2CH2-QFR-kbt], with 0.32 nM.
Take `CN(C)[C@@H](CCC(N)=O)C(=O)N[C@@H](Cc1ccccc1)C(=O)N[C@@H](CCCNC(=N)N)C(=O)c1nc2ccccc2s1` [CA1041, Dimethyl-QFR-kbt]: the IC50 against TMPRSS2 came to 0.86 nM.
For `N=C(N)NCCC[C@H](NC(=O)[C@H](Cc1ccccc1)NC(=O)[C@H](CCC(N)=O)NC(=O)c1ccccc1)C(=O)c1nc2ccccc2s1` [CA1043, Bz-QFR-kbt], in assay [1], the “H1N1 Fold inhibition @ 0.001 μM” value was 1, the “H1N1 Fold inhibition @ 0.01 μM” value is given as 1, the “H1N1 Fold inhibition @ 0.1 μM” value worked out at 5 and the “H1N1 Fold inhibition @ 1 μM” value is 968. Further, in assay [1], the “H1N1 Fold inhibition @ 10 μM” value is reported as 774, the “H1N1 titer Log fold reduction (1 μM)” value is reported as 3.1 and the “H1N1 titer Log fold reduction (10 μM)” value is on record as 3.0. Moreover, 0.08 nM corresponded to half-maximal inhibition on TMPRSS2 (IC50).
As to `N=C(N)NCCC[C@H](NC(=O)[C@H](Cc1ccccc1)NC(=O)[C@H](CCC(N)=O)N1CCCCC1)C(=O)c1nc2ccccc2s1` [CA1046, Pip-QFR-kbt], on TMPRSS2, the IC50 was 8.2 nM.
For `CS(=O)(=O)N[C@@H](CCC(N)=O)C(=O)N[C@@H](Cc1ccccc1)C(=O)N[C@@H](CCCNC(=N)N)C(=O)c1nc2ccccc2s1` [MF1099, MeSO2-QFR-kbt, reference compound], the IC50 against HGFA stood at 341 nM.
Regarding `N=C(N)NCCC[C@H](NC(=O)[C@H](Cc1ccccc1)NC(=O)[C@H](CCC(N)=O)NS(=O)(=O)c1ccccc1)C(=O)c1nc2ccccc2s1` [MF1101, PhSO2-QFR-kbt], in assay [1], the “H1N1 Fold inhibition @ 0.001 μM” value was found to be 1, the “H1N1 Fold inhibition @ 0.01 μM” value is given as 1, the “H1N1 Fold inhibition @ 0.1 μM” value is recorded as 4 and the “H1N1 Fold inhibition @ 1 μM” value turned out to be 1014. In assay [1], the “H1N1 Fold inhibition @ 10 μM” value worked out at 1321, the “H1N1 titer Log fold reduction (1 μM)” value was found to be 2.9 and the “H1N1 titer Log fold reduction (10 μM)” value turned out to be 3.3. The same molecule yielded an IC50 against HGFA of 17 nM. In addition, the IC50 against TMPRSS2 amounted to 1 nM.
`N=C(N)NCCC[C@H](NC(=O)[C@H](Cc1ccccc1)NC(=O)[C@H](CCC(N)=O)NS(=O)(=O)C1CC1)C(=O)c1nc2ccccc2s1` [MF1104, CypSO2-QFR-kbt]: in assay [1], the “H1N1 Fold inhibition @ 0.001 μM” value is given as 1, the “H1N1 Fold inhibition @ 0.01 μM” value came to 2, the “H1N1 Fold inhibition @ 0.1 μM” value amounted to 1 and the “H1N1 Fold inhibition @ 1 μM” value turned out to be 617. Moreover, in assay [1], the “H1N1 Fold inhibition @ 10 μM” value amounted to 916, the “H1N1 titer Log fold reduction (1 μM)” value worked out at 2.9 and the “H1N1 titer Log fold reduction (10 μM)” value was 3.0. Further, the IC50 against HGFA was determined as 4.2 nM. Half-maximal inhibition against TMPRSS2 (IC50) required 0.27 nM.
As to `N=C(N)NCCC[C@H](NC(=O)[C@H](Cc1ccccc1)NC(=O)[C@H](CCC(N)=O)NS(=O)(=O)Cc1ccccc1)C(=O)c1nc2ccccc2s1` [MF1105, BnSO2-QFR-kbt], the IC50 at HGFA is 6.5 nM; against thrombin, above 20000 nM; against TMPRSS2, 0.07 nM.
For orientation: EC50 means the concentration that produces a half-maximal response. Low readings indicate a more potent agent, high ones a less potent agent. As to `CC(=O)NCC(=O)N[C@@H](CCC(N)=O)C(=O)N[C@@H](Cc1ccccc1)C(=O)N[C@@H](CCCNC(=N)N)C(=O)c1nc2ccccc2s1` [MM3122, Ac-GQFR-kbt], in assay [1], the “H1N1 Fold inhibition @ 0.001 μM” value was 2.1, the “H1N1 Fold inhibition @ 0.01 μM” value is recorded as 4.2, the “H1N1 Fold inhibition @ 0.1 μM” value amounted to 27.5 and the “H1N1 Fold inhibition @ 1 μM” value turned out to be 2216. Besides, in assay [1], the “H1N1 Fold inhibition @ 10 μM” value amounted to 2952, the “H1N1 titer Log fold reduction (1 μM)” value was found to be 3.4 and the “H1N1 titer Log fold reduction (10 μM)” value is given as 4.3. For the same molecule, in assay [2], the “VSV SARS-CoV-2 Chimera EC50” value is on record as “below nM” and the concentration for a half-maximal effect (EC50) is 0.43 nM. The IC50 on TMPRSS2 amounted to 0.03 nM.
Turning to `CC(=O)N1CCC[C@H]1C(=O)N[C@@H](CCC(N)=O)C(=O)N[C@@H](Cc1ccccc1)C(=O)N[C@@H](CCCNC(=N)N)C(=O)c1nc2ccccc2s1` [MM3123, Ac-PQFR-kbt], in assay [1], the “H1N1 titer Log fold reduction (1 μM)” value was found to be 1.3 and the “H1N1 titer Log fold reduction (10 μM)” value came out at 2.6. For the same molecule, in assay [2], the “VSV SARS-CoV-2 Chimera EC50” value is recorded as “below nM” and it took 0.86 nM to reach a half-maximal effect (EC50). This molecule also showed an IC50 against TMPRSS2 of 0.06 nM.
Take `CSCC[C@H](NC(C)=O)C(=O)N[C@@H](CCC(N)=O)C(=O)N[C@@H](Cc1ccccc1)C(=O)N[C@@H](CCCNC(=N)N)C(=O)c1nc2ccccc2s1` [MM3130, Ac-MQFR-kbt]: in assay [1], the “H1N1 Fold inhibition @ 0.1 μM” value stood at 1, the “H1N1 Fold inhibition @ 1 μM” value is on record as 27, the “H1N1 Fold inhibition @ 10 μM” value came out at 510 and the “H1N1 titer Log fold reduction (1 μM)” value is given as 1.4. Moreover, the “H1N1 titer Log fold reduction (10 μM)” value in assay [1] was found to be 2.7. The molecule further returned an EC50 in assay [2] of 48 nM. At TMPRSS2, this molecule returned an IC50 of 0.14 nM.
The molecule `CC(=O)N[C@@H](CC(C)C)C(=O)N[C@@H](CCC(N)=O)C(=O)N[C@@H](Cc1ccccc1)C(=O)N[C@@H](CCCNC(=N)N)C(=O)c1nc2ccccc2s1` [MM3131, Ac-LQFR-kbt] returned an EC50 in assay [2] of 11 nM. Further, the IC50 at TMPRSS2 worked out at 0.03 nM.
As to `CC(=O)N1CCC[C@H]1C(=O)N[C@@H](CO)C(=O)N[C@@H](CCCCN)C(=O)N[C@@H](CCCNC(=N)N)C(=O)c1nc2ccccc2s1` [MM3194, Ac-PSKR-kbt], in assay [1], the “H1N1 Fold inhibition @ 0.1 μM” value amounted to 1, the “H1N1 Fold inhibition @ 1 μM” value stood at 1, the “H1N1 Fold inhibition @ 10 μM” value is on record as 4 and the “H1N1 titer Log fold reduction (1 μM)” value is on record as 0. The “H1N1 titer Log fold reduction (10 μM)” value in assay [1] is 0.60. The same molecule yielded an IC50 on thrombin above 20000 nM. Moreover, in assay [2], the EC50 was determined as 613 nM. Inhibition against TMPRSS2 was half-maximal at 0.29 nM (IC50).
As for `CC[C@H](C)[C@H](NC(C)=O)C(=O)N[C@@H](CCSC)C(=O)N[C@@H](Cc1ccccc1)C(=O)N[C@@H](CCCNC(=N)N)C(=O)c1nc2ccccc2s1` [MM4027, Ac-IMFR-kbt], the IC50 against thrombin is above 20000 nM; against matriptase it was 0.51 nM; against hepsin, 1.3 nM; at TMPRSS2, 3 nM. In addition, the midpoint of the response in assay [2], the EC50, lay at 92 nM.
As for `CC[C@H](C)[C@H](NC(C)=O)C(=O)N[C@@H](CCSC)C(=O)N[C@@H](Cc1ccccc1)C(=O)N[C@H](CCCNC(=N)N)C(=O)c1nc2ccccc2s1` [MM4027-1, Ac-IMFdR-kbt], the IC50 against HGFA was 234 nM; against thrombin, above 20000 nM; on matriptase, 16.1 nM; against hepsin, 3.16 nM; against TMPRSS2, 5.63 nM.
For `CC[C@H](C)[C@H](NC(C)=O)C(=O)N[C@H](C(=O)N[C@@H](Cc1ccccc1)C(=O)N[C@@H](CCCNC(=N)N)C(=O)c1nc2ccccc2s1)[C@@H](C)O` [MM4028, Ac-ITFR-kbt], the IC50 on HGFA was 182 nM; against thrombin, above 20000 nM; against matriptase it was 4.7 nM; at hepsin, 0.86 nM; against TMPRSS2, 0.06 nM. The same molecule registered an EC50 in assay [2] of 103 nM.
On to `CC[C@H](C)[C@H](NC(C)=O)C(=O)N[C@H](C(=O)N[C@@H](Cc1ccccc1)C(=O)N[C@H](CCCNC(=N)N)C(=O)c1nc2ccccc2s1)[C@@H](C)O` [MM4028-1, Ac-ITFdR-kbt], for which the IC50 against HGFA was 1120 nM; on thrombin, above 20000 nM; against TMPRSS2, 1.42 nM.
`CC[C@H](C)[C@H](NC(C)=O)C(=O)N[C@@H](CCC(=O)O)C(=O)N[C@@H](Cc1ccccc1)C(=O)N[C@H](CCCNC(=N)N)C(=O)c1nc2ccccc2s1` [MM4037-1, Ac-IEFdR-kbt]: the values for the IC50 on HGFA, at thrombin and against TMPRSS2 were above 20000 nM, above 20000 nM and 0.38 nM, respectively.
`CC(=O)N[C@@H](Cc1c[nH]c2ccccc12)C(=O)N[C@@H](CC(C)C)C(=O)N[C@@H](Cc1ccccc1)C(=O)N[C@@H](CCCNC(=N)N)C(=O)c1nc2ccccc2s1` [ZFH7064, Ac-WLFR-kbt] came in with an IC50 against TMPRSS2 of 0.09 nM.
Regarding `N=C(N)NCCC[C@H](NC(=O)[C@H](Cc1ccccc1)NC(=O)[C@H](CCC(N)=O)NC(=O)OCc1ccccc1)C(=O)c1nc2ccccc2s1` [ZFH9141, Cbz-QFR-kbt], in assay [1], the “H1N1 Fold inhibition @ 0.001 μM” value came to 2, the “H1N1 Fold inhibition @ 0.01 μM” value is given as 6, the “H1N1 Fold inhibition @ 0.1 μM” value came to 483 and the “H1N1 Fold inhibition @ 1 μM” value is recorded as 578. In assay [1], the “H1N1 Fold inhibition @ 10 μM” value was determined as 578, the “H1N1 titer Log fold reduction (1 μM)” value is on record as 2.8 and the “H1N1 titer Log fold reduction (10 μM)” value worked out at 2.8. This molecule also showed an IC50 at HGFA of 85 nM. At TMPRSS2, the IC50 worked out at 0.42 nM.
